What was measured:
[1] = tested on: (R)-form-specific transaminase of Arthrobacter sp. KNK168; assay: Reactivity of purified enzyme to carbonyl compounds, (R)-1-phenylethylamine as amino donor; type: biochemical; details: for Relative Activity (%) of carbonyl compounds: purified enzyme, 25 mM carbonyl compound, 25 mM (R)-1-phenylethylamine, pH 8.5, 30° C., 1 to 3 hours, pyruvic acid = 100; for reactivity of carbonyl compound: (R)-1-phenylethylamine as amino donor
Protocol: Using the purified enzyme obtained in Example 9, reactivities to various carbonyl compounds using (R)-1-phenylethylamine as an amino donor were evaluated. 50 μl of a solution of the purified enzyme was added to 200 μl of a substrate solution (0.1 M Tris-HCl buffer (pH 8.5), 25 mM (R)-1-phenylethylamine, 0.1 mM pyridoxal phosphate, and 25 mM various carbonyl compounds), and the components were reacted at 30° C. for 1 to 3 hours. The reaction tube was transferred into boiling water to stop the reaction, and, thereafter, the reaction mixture was diluted five-folds with methanol. This diluted solution was analyzed by high-performance liquid chromatography using fine pack C18-5 column and using methanol/water (20:80) as an eluent solution to quantitatively analyze acetophenone formed by the reaction.

[2] = tested on: (R)-form-specific transaminase of Arthrobacter sp. KNK168; assay: Reactivity of purified transaminase of present invention to amino compounds, pyruvic acid as amino acceptor; type: biochemical; parameters: Transaminase of Present Invention (Relative Activity: %), Substrate Specificity: concentration or dose not given beside the values; details: for Relative Activity (%) of amino compounds / Transaminase of Present Invention (Relative Activity: %), Substrate Specificity: purified enzyme; for Relative Activity (%) of amino compounds: 40 mM amino compound in substrate solution, 40 mM pyruvic acid, pH 8.3, 30° C., 1 hour, (R)-1-phenylethylamine = 100; for Transaminase of Present Invention (Relative Activity: %), Substrate Specificity / reactivity of amino compound: pyruvic acid as amino acceptor
Source text: The differences with the ω-amino acid transaminase derived from Pseudomonas sp. F-1 (Agric. Biol. Chem., 42, 2363-2367 (1978), Agric. Biol. Chem., 43, 1043-1048 (1979), J. Biol. Chem., 258, 2260-2265 (1983)) which have been well studied among the ω-amino acid transaminases, and with the benzylamine transaminase of Okada et al. (Japanese Patent Laid-Open No. Hei 6-178685) are summarized and shown in Table 2. In a case of the transaminase action in the present invention, the data of the purified enzyme are used, and in cases of those by other two enzymes, the data of the purified enzymes which are disclosed in each of the literature publication and patent publication are used. Pyruvic acid is used as an amino acceptor in all cases.
Using the purified enzyme obtained in Example 9, reactivities to various amino compounds when using pyruvic acid as an amino acceptor were evaluated. 150 μl of a solution of the purified enzyme diluted ten-folds was added to 150 μl of a substrate solution (0.1 M potassium phosphate buffer (pH 8.3), 40 mM pyruvic acid, 0.1 mM pyridoxal phosphate, and 40 mM various amino compounds). The components were reacted at 30° C. for 1 hour. The reaction tube was transferred into boiling water to stop the reaction, and, thereafter, a part of the reaction mixture was diluted five-folds. Ten μl of 0.1 M boric acid buffer (pH 8.0) and 20 μl of an ethanol solution of 80 mM of 4-fluoro-7-nitro-2,1,3-benzoxadiazole (NBD-F) were added to 10 μl of the above-mentioned diluted reaction mixture. The components were reacted at 60° C. for 1 minute, and, thereafter, the reaction mixture was ice-cooled, and 460 μl of 5 mM HCl was added thereto. This reaction mixture was analyzed by high-performance liquid chromatography using fine pack C18-5 column and using a 0.1 M potassium phosphate buffer (pH 6.5) and CH3CN (90:10) as an eluent solution to detect formation of alanine-NBD using excitation wavelength of 470 nm and using detection wave of […]. The results thereof are shown in Table 8 in terms of relative activity in the case of using […] as a substrate.

[3] = tested on: transaminase (intracellular enzyme) of Arthrobacter sp. KNK168; assay: Activity of the transaminase (intracellular enzyme) against typical substrates of ω-aminotransferases; type: biochemical
[4] = tested on: Arthrobacter species KNK168 strain; assay: Surfactants and fatty acids as reaction additives; (R)-DMA formation by cells; type: cell-based
Protocol: The cells obtained by culturing the Arthrobacter species KNK168 strain in the R medium were suspended in a reaction mixture containing 2% of 1-(3,4-dimethoxyphenyl)-2-propanone and 4% of (RS)-1-phenylethylamine. The surfactants and fatty acids shown in Table 6 were added thereto, and the mixture was reacted at 30° C. at a pH of 8.5 for 20 hours.

[5] = biological target: T1, ω-amino acid transaminase derived from Pseudomonas sp. F-1 (Pseudomonas putida, UniProt P28269); parameters: concentration or dose not given beside the values; details: purified enzyme, literature data; pyruvic acid as amino acceptor; cited from earlier work
T1 sequence (P28269 1-449): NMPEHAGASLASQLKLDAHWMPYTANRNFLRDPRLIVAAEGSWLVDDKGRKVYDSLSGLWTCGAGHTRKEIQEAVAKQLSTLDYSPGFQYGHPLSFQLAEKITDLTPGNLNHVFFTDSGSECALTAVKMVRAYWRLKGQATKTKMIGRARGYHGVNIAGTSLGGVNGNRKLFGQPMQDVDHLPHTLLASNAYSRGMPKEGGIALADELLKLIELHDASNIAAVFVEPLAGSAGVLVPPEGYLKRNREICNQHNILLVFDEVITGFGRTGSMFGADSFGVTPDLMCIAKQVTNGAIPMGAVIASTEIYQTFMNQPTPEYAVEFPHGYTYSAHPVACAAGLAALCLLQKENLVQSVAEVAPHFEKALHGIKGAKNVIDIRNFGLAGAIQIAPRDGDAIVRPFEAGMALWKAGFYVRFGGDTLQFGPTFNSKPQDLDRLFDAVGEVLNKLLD

[6] = tested on: Arthrobacter species KNK168 strain; assay: Amino donor test; (R)-DMA formation by cultured cells; type: cell-based
Protocol: The cultured cells were harvested by centrifugation, and the harvested cells were suspended in a reaction mixture (pH 8.5) containing 1% of 1-(3,4-dimethoxyphenyl)-2-propanone, […] of Triton X-100, and 1% of an amino donor shown in Table 2. The components were reacted at 35° C. for 20 hours.

[7] = amino acceptor pyruvic acid, (R)-1-phenylethylamine control = 100
[8] = amino acceptor 2-ketoglutaric acid, (R)-1-phenylethylamine/pyruvic acid control = 100
[9] = additive 0.1%, 2% ketone, 4% (RS)-1-phenylethylamine, 30° C., pH 8.5, 20 hours, no addition 28.1
[10] = additive 0.5%, otherwise as 0.1%
[11] = 1% amino donor, 1% 1-(3,4-dimethoxyphenyl)-2-propanone, Triton X-100, pH 8.5, 35° C., 20 hours

For CC(=O)c1nccs1 [2-Acetylthiazole], the “Relative Activity (%) of carbonyl compounds” value [1] was 10%.
In the case of CC(=O)COc1ccccc1 [Phenoxy-2-propanone], the “reactivity of carbonyl compound” value [1] is reported as “favorable reactivities” and the “Relative Activity (%) of carbonyl compounds” value [1] is reported as 83%.
In the case of CC(=O)c1cnccn1 [2-Acetylpyrazine], the “Relative Activity (%) of carbonyl compounds” value [1] is reported as 17%.
In the case of O=C1CCCc2ccccc21 [1-Tetralone], the “Relative Activity (%) of carbonyl compounds” value [1] is reported as 1%.
With CCCCCCC(C)N (stereo not shown) [1-Methylheptylamine] the “Relative Activity (%) of amino compounds” value [2] was 47%.
For C[C@@H](N)c1ccccc1 [(R)-1-Phenylethylamine], the “Relative Activity (%) of amino compounds” value [2] was 100%, the “activity of the transferase to amino donor” value [3] was “especially high activity” and the “Relative Activity (%) as amino donor” value [3, 7] was 100%.
In the case of CC(=O)c1ccncc1 [4-Acetylpyridine], the “Relative Activity (%) of carbonyl compounds” value [1] is reported as 27%.
For CCC(=O)C(=O)O [2-Ketobutyric acid], the “Relative Activity (%) of carbonyl compounds” value [1] was 7%.
In the case of NC(=O)CCC(N)C(=O)O (racemic) [DL-Glutamine], the “Relative Activity (%) as amino donor” value [3, 8] is reported as 0%.
For CCCCCCCCCCCCCCCC[N+](C)(C)C.[Br-] [Cetyl trimethyl ammonium bromide (CTAB), Cetyl trimethyl ammonium bromide], the “(R)-DMA Formed (%), additive” value [4, 9] was 29.1%.
In the case of N[C@H](CO)Cc1ccccc1 [L-Phenylalaninol], the “Relative Activity (%) of amino compounds” value [2] is reported as 0.8%.
With NCCCCC(N)C(=O)O (racemic) [DL-Lysine] the “Relative Activity (%) as amino donor” value [3, 8] was 0%.
In the case of CCC(C)N (stereo not shown) [1-Methylpropylamine], the “Relative Activity (%) of amino compounds” value [2] is reported as 1.2%.
With NCCCC(=O)O [4-Aminobutyric acid] the “action of the transaminase derived from Arthrobacter on the substrate” value [2] was “does not act”, the “Transaminase of Present Invention (Relative Activity: %), Substrate Specificity” value [2] was 0% and the “Relative Activity (%) as amino donor” value [3, 8] was 0%. The “ω-Amino Acid Transaminase (Relative Activity: %), Substrate Specificity” value [5] was 40%.
For CCCCCCCC/C=C\CCCCCCCC(=O)O [Oleic Acid], the “effect of additive on rate of reaction” value [4] was “rate of reaction was increased” and the “(R)-DMA Formed (%), additive” value ([4]; additive 2.9%) was 44.9%.
For COc1ccc(C[C@@H](C)N)cc1OC [(R)-3,4-Dimethoxyaminopropane], the “Relative Activity (%) of amino compounds” value [2] was 30%.
For CCCC(C)N (racemic) [(RS)-2-Aminopentane], the “function as amino donor” value [6] was “functioned as amino donors”.
For CC(=O)C(C)=O [Diacetyl], the “Relative Activity (%) of carbonyl compounds” value [1] was 10%.
With O=CCc1ccccc1 [Phenyl acetaldehyde] the “Relative Activity (%) of carbonyl compounds” value [1] was 13%.
In the case of CC(=O)c1cccnc1 [3-Acetylpyridine], the “Relative Activity (%) of carbonyl compounds” value [1] is reported as 8%.
With CCOC(=O)CC(=O)c1ccccc1 [Ethyl benzoyl acetate] the “Relative Activity (%) of carbonyl compounds” value [1] was 2%.
With COc1ccc(CCC(C)=O)cc1 [4-(4-Methoxyphenyl)-2-butanone] the “Relative Activity (%) of carbonyl compounds” value [1] was 7%.
For CCOC(=O)CC(C)=O [Ethyl acetoacetate], the “Relative Activity (%) of carbonyl compounds” value [1] was 4%.
For NCCC(N)C(=O)O (stereo not drawn) [α-2,4-Diaminobutyric acid], the “Relative Activity (%) as amino donor” value [3, 7] was 0%.
In the case of CC(CN)c1ccccc1 (racemic) [(RS)-1-Amino-2-phenylpropane], the “(R)-DMA Formed (%), amino group donor” value ([6]; pH 8.5) is reported as 1.8%.
For CC(=O)Oc1cccnc1 [3-Acetoxypyridine], the “Relative Activity (%) of carbonyl compounds” value [1] was 1%.
In the case of NC(=O)CC(N)C(=O)O (racemic) [DL-Asparagine], the “Relative Activity (%) as amino donor” value [3, 8] is reported as 0%.
With Triton X-100 the “(R)-DMA Formed (%), additive” value [4, 9] was 31.6% and the “(R)-DMA Formed (%), additive” value [4, 10] was 34.0%.
In the case of N[C@H](CO)c1ccccc1 [(S)-2-Phenylglycinol], the “Relative Activity (%) of amino compounds” value [2] is reported as 180% and the “reactivity of amino compound” value [2] is reported as “favorable reactivities”.
With O=CC(=O)O [Glyoxylic acid] the “Relative Activity (%) of carbonyl compounds” value [1] was 4%.
For CC(N)CO (racemic) [(RS)-2-Amino-1-propanol], the “(R)-DMA Formed (%), amino group donor” value [6, 11] was 9.6%.
With COCC(C)=O [1-Methoxy-2-propanone] the “Relative Activity (%) of carbonyl compounds” value [1] was 16%.
With CC(=O)c1ccccn1 [2-Acetylpyridine] the “Relative Activity (%) of carbonyl compounds” value [1] was 19%.
For CC(N)CC(=O)O (racemic) [DL-3-Aminobutyric acid], the “action of the transaminase derived from Arthrobacter on the substrate” value [2] is listed as “does not act”, the “Transaminase of Present Invention (Relative Activity: %), Substrate Specificity” value [2] is listed as 0% and the “ω-Amino Acid Transaminase (Relative Activity: %), Substrate Specificity” value [5] is listed as 96%.
In the case of NCCS(=O)(=O)O [Taurine], the “Relative Activity (%) as amino donor” value [3, 8] is reported as 0%.
In the case of CCCCC/C=C\C/C=C\CCCCCCCC(=O)O [Linoleic Acid], the “effect of additive on rate of reaction” value [4] is reported as “rate of reaction was increased” and the “(R)-DMA Formed (%), additive” value ([4]; additive 2.9%) is reported as 45.1%.
With O=C(O)CC(=O)C(=O)O [Oxalacetic acid] the “reactivity of carbonyl compound” value [1] was “favorable reactivities” and the “Relative Activity (%) of carbonyl compounds” value [1] was 87%.
For CC(=O)C(=O)O [Pyruvic acid], the “Relative Activity (%) of carbonyl compounds” value [1] was 100%.
For CC(=O)c1cccs1 [2-Acetylthiophene], the “Relative Activity (%) of carbonyl compounds” value [1] was 1%.
In the case of 2-Decane, the “Relative Activity (%) of carbonyl compounds” value [1] is reported as 3%.
In the case of CCC(=O)Cc1ccccc1 [1-Phenyl-2-butanone], the “Relative Activity (%) of carbonyl compounds” value [1] is reported as 1%.
With COc1ccc(CC(C)=O)cc1OC [1-(3,4-Dimethoxyphenyl)-2-propanone] the “Relative Activity (%) of carbonyl compounds” value [1] was 7%.
For CC(N)c1ccccc1 (racemic) [(RS)-1-phenylmethylamine], the “(R)-DMA Formed (%), amino group donor” value [6, 11] was 3.1%.
For CCOC(=O)C(C)=O [Ethyl pyruvate], the “Relative Activity (%) of carbonyl compounds” value [1] was 27%.
With CC(=O)c1ccco1 [2-Acetylfuran] the “Relative Activity (%) of carbonyl compounds” value [1] was 2%.
In the case of CC(N)c1cccc2ccccc12 (racemic) [(RS)-1-Naphthylethylamine], the “(R)-DMA Formed (%), amino group donor” value [6, 11] is reported as 34.2%.
In the case of CC(N)CCc1ccccc1 (stereo not shown) [3-Aminophenylbutane], the “Relative Activity (%) of amino compounds” value [2] is reported as 84% and the “reactivity of amino compound” value [2] is reported as “favorable reactivities”.
With CC(=O)CCc1ccccc1 [Benzyl acetone] the “Relative Activity (%) of carbonyl compounds” value [1] was 3%.
With CCCCCC(C)N (stereo not shown) [2-Heptylamine] the “Relative Activity (%) of amino compounds” value [2] was 37%.
In the case of CCCCCCCCCCCCOS(=O)(=O)[O-].[Na+] [Sodium dodecyl sulfate], the “effect of additive on rate of reaction” value [4] is reported as “rate of reaction was increased”, the “(R)-DMA Formed (%), additive” value [4, 9] is reported as 45.3% and the “(R)-DMA Formed (%), additive” value [4, 10] is reported as 42.2%. For the same molecule, the “(R)-DMA Formed (%), additive” value ([4]; additive 1.0%) was 46.3%, the “(R)-DMA Formed (%), additive” value ([4]; additive 2.0%) was 50.1% and the “(R)-DMA Formed (%), additive” value ([4]; additive 3.0%) was 51.9%. For the same molecule, the “(R)-DMA Formed (%), additive” value ([4]; additive 4.0%) was 53.1%.
